{"source": "patent US8138304B2", "about": "“Neural regeneration peptides and formulations thereof” (Neuren Pharmaceuticals Limited, priority 2005, dated 2012)", "key": {"[1]": {"tested_on": "cerebellar microexplants", "assay": "Cerebellar microexplant survival assay (3-NP/glutamate injury)", "format": "cell-based, Wistar rat", "conditions": "100 fM; administered simultaneously with toxins (0.5 mM 3-NP, 0.5 mM glutamate), severe injury", "experimental": "Laminated cerebellar cortices of the two hemispheres were explanted from a P3, P4, P7 or P8 Wistar rat, cut into small pieces in GBSS with 0.65% D(+)glucose solution, and triturated by a 0.4 mm gauge needle and subsequently pressed through a 125 μm pore size sieve. The obtained microexplants were centrifuged (60×g) 2 times for a medium exchange into serum-free BSA-supplemented START V-medium (Biochrom). Finally, the microexplants were reconstituted in 500 μl STARTV-medium. For culturing, 38 μl of the cell suspension was incubated for 1 hour on a poly-D-lysine-coated cover slip in a 35 mm Petri dish under an atmosphere comprising 5% CO2 in air and 100% humidity at 34° C. Subsequently, the injuring toxins (as described below), NRPs and 1 ml of STARTV-medium were added, and the cultures were evaluated after 2-3 days of culture.\nToxicological and drug administration experiments were designed such that 1/100 parts of toxin and neuroprotective drug were administered simultaneously to the freshly prepared cerebellar microexplants. […]\nFor statistical analysis of survival, four fields (each field having an area of 0.65 mm^2) of each fixed cerebellar culture with the highest cell densities were chosen, and cells displaying neurite outgrowth were counted (survival assay)."}, "[2]": {"tested_on": "purified primary placental trophoblasts", "assay": "TNF-alpha-induced cytotoxicity in isolated trophoblasts (survival assay)", "format": "cell-based, human", "conditions": "24 hrs pre-incubation", "experimental": "Human trophoblast cells were isolated from term placentas with prior approval by the Ethics Committee of the University of Auckland and consent of the patients. The maternal decidua was removed, exposing the villous interior of the placenta. Pieces of villous tissue were cut out and washed thoroughly with PBS before digestion using 0.25% trypsin. The digest was then diluted in Locke Ringers Buffer and DNAase I. Digestion of connective tissue surrounding the placental cells was carried out while stirring the mixture with a magnetic stirrer at a temperature of 37° C. The process was repeated 8 times, with the last 6 supernatants being collected in a bottle containing fetal bovine serum (FBS). The digestion step produced a heterogeneous dispersed cell preparation. The pooled supernates was centrifuged for 7 minutes at 1200 rpm. The cell pellet was resuspended in PBS and centrifuged. This was followed by a 10-minute incubation in erythrocyte lysis buffer with an underlayer of FBS in the last 2 minutes, followed by centrifugation for 7 minutes. Cells were resuspended in M199 medium and recentrifuged.\nCells were then purified using a percoll gradient (5, 20, 30, 35, 40, 50 and 60%). The gradients were prepared with the 60% percoll on the bottom, with decreasing concentrations near the top of the gradient. Cells were introduced into the 5% percoll layer. The cells were centrifuged for 20 minutes at 1200G to separate trophoblasts from debris and other cell types, leaving a band of trophoblasts in the 40% percoll band. This band was collected, the cells washed in M199 medium centrifuged and finally counted and plated according to the methods of Keelan et al, 1998.\nIn this series of experiments, we studied whether NRP-5RG D6A was able to protect purified primary placental trophoblasts against TNF-alpha mediated injury.\nIn this study, we plated 30,000 freshly isolated trophoblast cells per well in microtiter well plates followed by pre-incubation with NRP-5RG D6A (SEQ ID NO: 1) for 24 hours. […]"}, "[3]": {"tested_on": "JAr cells", "assay": "TNF-alpha-induced cytotoxicity in immortalized trophoblast cell line", "format": "cell-based, human", "experimental": "Choriocarcinoma cells (Jeg-3, BeWo and Jar; ATCC) were cultured under similar conditions in DMEM/F-12 cell culture medium in 75 cm2 flasks with filter tops (Raylab). Cells were allowed to adhere and grow in an incubator equilibrated in 95%/5% air/CO2 to approximately 70% confluence, before being split every 2 to 3 days by addition of 2 ml of 1× concentrated trypsin-EDTA. After a centrifugation step for 5 min at 1100 rpm, cells were resuspended in 15 ml of fresh DMEM/F-12 in sterile tissue flasks and placed back in the incubator.\nIn this study, we plated 50,000 JAr cells per well. JAr cells are an immortalized line of cells derived from a human choriocarcinoma cells. Wells were pre-incubated with NRP-5RG D6A (SEQ ID NO: 1) at the concentrations indicated in FIG. 12, or epidermal growth factor (EGF; 5 ng/ml) for 2 hours. Subsequently, cells were exposed to the cultures for 48 hours to TNF-alpha (5 ng/ml) and interferon-gamma (5 ng/ml) to induce stress."}}, "note": "Where no end group is shown, it is not given here.", "data": [{"substance": "REGRRAAPGRAGG-NH2 (listed as Homo sapiens) [SEQ ID NO: 1, 13-mer NRP analogue]", "values": [{"measurement": "survival rates, neuroprotection", "setting": "[1]", "result": 39.1, "unit": "%"}, {"measurement": "protection from TNF-alpha mediated injury", "setting": "[2]; 1 pM, TNF-alpha 5 or 50 ng/ml plus interferon gamma, 48 h", "result": 100, "unit": "%"}, {"measurement": "cytoprotection from TNF-alpha mediated injury", "setting": "[2]; 10 pM", "result": "protective"}, {"measurement": "cytoprotection from TNF-alpha mediated injury", "setting": "[2]; 1 nM", "result": "not statistically significant"}, {"measurement": "rescue effect at further increased concentration", "setting": "[3]; 1 nM", "result": "reduced rescue effect"}, {"measurement": "concentration at which a significant rescue effect was observed", "setting": "[3]; 2 hours pre-incubation, TNF-alpha 5 ng/ml and interferon-gamma 5 ng/ml, 48 hours", "result": 10, "unit": "fM"}]}]}
